Results reported in US5134137A, “Cephalosporin antibiotics” (The Upjohn Company, priority 1990, dated 1992).
Values after ≈ are worked out from the molar mass of the structure shown. Like-named read-outs stand apart in the source and are kept apart here.

Legend:
[1] = Stability of the compound; assay type: physicochemical
Streptococcus bovis = experiment: MIC, agar dilution, Streptococcus bovis; assay type: cell-based; settings: Streptococcus equinus; strain UC6281; read-out: MIC
Procedure, shortened: (§1)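 Each organism receives an inoculum of approx. 10^3–10^4 CFU, taken from a 5% CO2 BHI subculture standardised to 0.5 McFarland and diluted 1:20. It is spotted on Mueller-Hinton agar containing the compound, then incubated for 16–18 h at 37 °C with CO2.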

Pasteurella hemolytica = experiment: MIC (minimum inhibitory concentration), agar dilution, Pasteurella hemolytica; assay type: cell-based; settings: Pasteurella, read-out: MIC
Procedure, shortened: as §1

[2] = Serum half life / duration of antibiotic action
[3] = tested on: Streptococcus dysgalactiae; experiment: MIC, agar dilution, Streptococcus dysgalactiae; assay type: cell-based; settings: Streptococcus dysgalactiae; strain UC251; read-out: MIC
Procedure, shortened: as §1

Escherichia coli = experiment: MIC, agar dilution, Escherichia coli; assay type: cell-based; settings: Escherichia coli, read-out: MIC
Procedure, shortened: as §1

Streptococcus suis = experiment: MIC, agar dilution, Streptococcus suis; assay type: cell-based
Procedure, shortened: as §1

Pasteurella multocida = experiment: MIC, agar dilution, Pasteurella multocida; assay type: cell-based; settings: Pasteurella multocida; strain B77-18; read-out: MIC
Procedure, shortened: as §1

Micrococcus luteus = experiment: MIC, agar dilution, Micrococcus luteus; assay type: cell-based; settings: Micrococcus luteus; strain UC130; read-out: MIC
Procedure, shortened: as §1

[4] = Streptococcus suis, strain 538-2, read-out: MIC

| stability in alkaline solution ([1]; alkaline solution) | stability in the dry state ([1]; dry state, white powder) | MIC (Streptococcus bovis) | serum half life ([2]; inferred from results against Salmonella typhimurium) | MIC [3] | MIC (Escherichia coli; strain ATCC25922) | MIC (Escherichia coli; strain P75-1) | MIC (Escherichia coli; strain UC3784) | MIC (Escherichia coli; strain UC6720) | MIC (Streptococcus suis; [4]) | MIC (Streptococcus suis; strain 650-2) | MIC (Pasteurella multocida) | MIC (Micrococcus luteus) | SMILES | stability in strongly acidic media ([1]; strongly acidic media) | MIC (Pasteurella hemolytica; strain B77-19) | MIC (Pasteurella hemolytica; strain UC6531) | MIC (Pasteurella hemolytica; strain UC6532) | duration of antibiotic action ([2]; compared with ceftiofur) |
| --- | --- | --- | --- | --- | --- | --- | --- | --- | --- | --- | --- | --- | --- | --- | --- | --- | --- | --- |
| decomposes quickly | stable in the dry state | ≤ 0.06 µg/mL | longer serum half life | ≤ 0.06 µg/mL | 0.5 µg/mL | 0.5 µg/mL | 0.5 µg/mL | 0.5 µg/mL | ≤ 0.06 µg/mL | ≤ 0.06 µg/mL | ≤ 0.06 µg/mL | – | CO/N=C(\C(=O)N[C@@H]1C(=O)N2C(C(=O)O)=C(CS)CS[C@H]12)c1csc(N)n1 [Formula III compound, 3-mercaptomethyl-7β-[2-(2-amino-1,3-thiazol-4-yl)-(Z)-2-(methoxyimino)acetamido]ceph-3-em-4-carboxylic acid] | converted to the 3,4-thio-lactone derivative | ≤ 0.06 µg/mL | ≤ 0.06 µg/mL | ≤ 0.06 µg/mL | biologically longer acting as an antibiotic than ceftiofur |
| – | – | ≤ 0.06 µg/mL | – | ≤ 0.06 µg/mL | 0.13 µg/mL (≈ 0.248 µM) | 0.13 µg/mL (≈ 0.248 µM) | 0.13 µg/mL (≈ 0.248 µM) | 0.13 µg/mL (≈ 0.248 µM) | ≤ 0.06 µg/mL | ≤ 0.06 µg/mL | ≤ 0.06 µg/mL | 0.25 µg/mL (≈ 0.477 µM) | CO/N=C(\C(=O)N[C@@H]1C(=O)N2C(C(=O)O)=C(CSC(=O)c3ccco3)CS[C@H]12)c1csc(N)n1 [ceftiofur, 7-[2-(amino-1,3-thiazol-4-yl)-2-(methoxyimino)acetamido]-3-[(fur-2-ylcarbonyl)thiomethyl]-3-cephem-4-carboxylic acid, reference compound] | – | ≤ 0.06 µg/mL | ≤ 0.06 µg/mL | ≤ 0.06 µg/mL | – |

| SMILES | stability in alkaline solution ([1]; alkaline solution) | stability in the dry state ([1]; dry state, white powder) | MIC (Streptococcus bovis) | serum half life ([2]; inferred from results against Salmonella typhimurium) | MIC [3] | MIC (Escherichia coli; strain ATCC25922) | MIC (Escherichia coli; strain P75-1) | MIC (Escherichia coli; strain UC3784) | MIC (Escherichia coli; strain UC6720) | MIC (Streptococcus suis; [4]) | MIC (Streptococcus suis; strain 650-2) | MIC (Pasteurella multocida) | MIC (Micrococcus luteus) | stability in strongly acidic media ([1]; strongly acidic media) | MIC (Pasteurella hemolytica; strain B77-19) | MIC (Pasteurella hemolytica; strain UC6531) | MIC (Pasteurella hemolytica; strain UC6532) | duration of antibiotic action ([2]; compared with ceftiofur) |
| --- | --- | --- | --- | --- | --- | --- | --- | --- | --- | --- | --- | --- | --- | --- | --- | --- | --- | --- |
| CO/N=C(\C(=O)N[C@@H]1C(=O)N2C(C(=O)O)=C(CO)CS[C@H]12)c1csc(N)n1 [desacetyl cefotoxime, 7-[2-(2-amino-1,3-thiazol-4-yl)-(syn)-2-methoxyiminoacetamido]-3-hydroxymethylceph-3-em-4-carboxylic acid, reference compound] | – | – | ≤ 0.06 µg/mL | – | ≤ 0.06 µg/mL | 0.25 µg/mL (≈ 0.605 µM) | 0.25 µg/mL (≈ 0.605 µM) | 0.25 µg/mL (≈ 0.605 µM) | 0.25 µg/mL (≈ 0.605 µM) | ≤ 0.06 µg/mL | ≤ 0.06 µg/mL | ≤ 0.06 µg/mL | – | – | ≤ 0.06 µg/mL | ≤ 0.06 µg/mL | ≤ 0.06 µg/mL | – |
